Test results: patent publication US20050220865A1, “Compressed composition comprising magnesium salt” (priority 2004, published 2005)

Columns and labels:
[1] = cited from earlier work; for USP 27/NF22 Solubility: USP 27/NF22 solubility term
[2] = Storage stability of USP <711> dissolution profile at 40° C. and 75% relative humidity; type: physicochemical; conditions: FIG. 4; stored at 40° C. and 75% relative humidity up to 2 months; protected from moisture
Method: By “pharmaceutically acceptable storage conditions” is meant storage at 25° C. and 60% relative humidity (RH) in a tight, sealed container-enclosure system. The storage conditions employed herein (40° C. and 75% RH) in evaluating formulations are used in the pharmaceutical industry to conduct accelerated stability testing of formulations such that a period of 2 months under these conditions is generally accepted to equal a period of 1 year under pharmaceutically acceptable storage conditions (25° C. and 60% relative humidity).
(§1) USP 27/NF22 specification for magnesium oxide tablets is not less than 75% (O) of the labeled amount of MgO is dissolved in 45 minutes. Dissolution testing is performed using apparatus II with 900 mL of 0.1 N hydrochloric acid maintained at 37° C. and agitated at 75 rpm. Samples are withdrawn at after 45 minutes of testing. The amount of MgO dissolved is then determined using atomic absorption (AA) spectrophotometry at a wavelength of 285.2 nm using filtered portions of the solution under test, diluted with Dissolution Medium. A standard curve is generated using a magnesium standard solution of known concentration in the same medium.
The initial dissolution profile for each of the prior art and present formulations is determined as described herein. […] At monthly intervals, the dissolution profile of the formulations is determined again. […]

[3] = Magnesium oxide tablet monograph USP <711> dissolution; type: physicochemical; conditions: FIG. 5; binary mixture of heavy grade magnesium oxide, USP with excipient
Method: The following drawings are given by way of illustration only, and thus are not intended to limit the scope of the present invention. The USP27/NF22 monograph for magnesium oxide tablets specifies that the dissolution method is to be executed using the general conditions of chapter <711> with 900 mL of 0.1 N hydrochloric acid, a paddle rotation speed of 75 RPM, and a sampling timepoint of 45 minutes.
as §1

Row | Compound | USP 27/NF22 Solubility [1] | Solubility in Neutral Water [1] [g/100 mL] | dissolution of magnesium from pure magnesium oxide [2] | influence of excipient on dissolution of magnesium [3]
1 | [F-].[F-].[Mg+2] [MgF2] | Practically Insoluble | 0.0002 |  | 
2 | [O]=[Mg] [MgO, magnesium oxide, reference compound] | Practically Insoluble | 0.00062 | suitable dissolution | 
3 | O=C([O-])CC(O)(CC(=O)[O-])C(=O)[O-].[Na+].[Na+].[Na+] [sodium citrate] |  |  |  | decrease dissolution
4 | potassium phosphate |  |  |  | decrease dissolution
